The record followed here is ChEMBL document CHEMBL2073763, “Functional involvement of rat organic anion transporter 3 (rOat3; Slc22a8) in the renal uptake of organic anions” (J Pharmacol Exp Ther, 2002).

What is called Ki is a measure of affinity in units of concentration, obtained from inhibition or displacement. Higher therefore signals lower affinity. A word on the Km: it is the concentration of substrate that gives half-maximal velocity.

Type in all cases: functional, cell-based
Series [1] deals with T1, Organic anion transporter 3 (Rattus norvegicus, UniProt Q9R1U7).
T1 sequence (Q9R1U7 whole entry): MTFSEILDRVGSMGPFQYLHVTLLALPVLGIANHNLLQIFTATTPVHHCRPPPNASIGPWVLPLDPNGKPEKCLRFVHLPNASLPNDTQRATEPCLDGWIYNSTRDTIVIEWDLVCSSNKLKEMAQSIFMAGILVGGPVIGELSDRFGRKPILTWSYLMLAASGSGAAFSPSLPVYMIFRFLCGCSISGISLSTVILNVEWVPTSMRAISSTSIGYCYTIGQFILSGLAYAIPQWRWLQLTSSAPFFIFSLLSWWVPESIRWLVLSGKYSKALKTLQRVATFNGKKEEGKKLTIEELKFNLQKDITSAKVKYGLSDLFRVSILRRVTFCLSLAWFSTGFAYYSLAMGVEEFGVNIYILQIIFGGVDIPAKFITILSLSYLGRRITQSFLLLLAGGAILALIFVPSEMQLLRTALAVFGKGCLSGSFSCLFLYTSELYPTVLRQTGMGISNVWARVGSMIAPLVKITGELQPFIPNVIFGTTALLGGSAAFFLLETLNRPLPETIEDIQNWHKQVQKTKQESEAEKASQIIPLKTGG
As to the kind of experiment: TP_TRANSPORTER: inhibition of Pravastatin uptake in Oat3-expressing LLC-PK1 cells.

Series [2] deals with T2, Solute carrier family 22 member 6 (Rattus norvegicus, UniProt O35956).
T2 sequence (O35956 whole entry): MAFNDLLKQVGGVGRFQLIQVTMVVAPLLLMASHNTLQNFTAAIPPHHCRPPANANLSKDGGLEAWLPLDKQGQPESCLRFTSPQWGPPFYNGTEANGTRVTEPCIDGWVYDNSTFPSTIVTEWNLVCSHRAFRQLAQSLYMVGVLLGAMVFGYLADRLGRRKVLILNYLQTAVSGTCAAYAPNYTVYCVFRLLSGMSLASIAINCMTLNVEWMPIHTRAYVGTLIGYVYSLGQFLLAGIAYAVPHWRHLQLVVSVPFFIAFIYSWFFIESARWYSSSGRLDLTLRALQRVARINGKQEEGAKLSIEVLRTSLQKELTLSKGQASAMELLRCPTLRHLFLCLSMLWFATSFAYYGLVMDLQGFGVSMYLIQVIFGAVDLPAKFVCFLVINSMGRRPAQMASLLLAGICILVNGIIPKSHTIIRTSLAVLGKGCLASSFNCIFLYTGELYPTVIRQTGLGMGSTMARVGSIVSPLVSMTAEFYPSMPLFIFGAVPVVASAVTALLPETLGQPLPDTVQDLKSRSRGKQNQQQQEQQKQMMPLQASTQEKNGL
Put plainly: TP_TRANSPORTER: inhibition of PAH uptake in Oat1-expressing LLC-PK1 cells.

Substrate in series [3]: CC[C@H](C)C(=O)O[C@H]1C[C@H](O)C=C2C=C[C@H](C)[C@H](CC[C@@H](O)C[C@@H](O)CC(=O)O)[C@H]21
Put plainly: TP_TRANSPORTER: uptake in Oat3-expressing LLC-PK1 cells.

Molecule `Nc1ccc(C(=O)NCC(=O)O)cc1` [AMINOHIPPURIC ACID] returned a Ki in series [1] of 1350 µM.
Consider `O=C1OC(c2ccc(OS(=O)(=O)O)cc2)(c2ccc(OS(=O)(=O)O)cc2)c2c(Br)ccc(Br)c21` [DIBROMOSULFOPHTHALEIN], for which the Ki in series [2] is 2.74 µM; in series [1], 3.09 µM.
In turn, `CC1(C)S[C@@H]2[C@H](NC(=O)Cc3ccccc3)C(=O)N2[C@H]1C(=O)O` [PENICILLIN G] gave a Ki in series [1] of 52.8 µM.
In the case of `CC[C@H](C)C(=O)O[C@H]1C[C@H](O)C=C2C=C[C@H](C)[C@H](CC[C@@H](O)C[C@@H](O)CC(=O)O)[C@H]21` [PRAVASTATIN], the affinity in series [2], expressed as Ki, was 1150 µM.

B1: Organic anion transporter 3 (Rattus norvegicus) (protein)
chain: MTFSEILDRVGSMGPFQYLHVTLLALPVLGIANHNLLQIFTATTPVHHCRPPPNASIGPWVLPLDPNGKPEKCLRFVHLPNASLPNDTQRATEPCLDGWIYNSTRDTIVIEWDLVCSSNKLKEMAQSIFMAGILVGGPVIGELSDRFGRKPILTWSYLMLAASGSGAAFSPSLPVYMIFRFLCGCSISGISLSTVILNVEWVPTSMRAISSTSIGYCYTIGQFILSGLAYAIPQWRWLQLTSSAPFFIFSLLSWWVPESIRWLVLSGKYSKALKTLQRVATFNGKKEEGKKLTIEELKFNLQKDITSAKVKYGLSDLFRVSILRRVTFCLSLAWFSTGFAYYSLAMGVEEFGVNIYILQIIFGGVDIPAKFITILSLSYLGRRITQSFLLLLAGGAILALIFVPSEMQLLRTALAVFGKGCLSGSFSCLFLYTSELYPTVLRQTGMGISNVWARVGSMIAPLVKITGELQPFIPNVIFGTTALLGGSAAFFLLETLNRPLPETIEDIQNWHKQVQKTKQESEAEKASQIIPLKTGG
Take B1: the Km in series [3] was 13.4 µM.
